Test results taken from patent US20060247320A1, “Compounds for inhibiting KSP kinesin activity” (priority 2005, published 2006).
pIC50: −log10 of the molar value. Like-named read-outs stand apart in the source and are kept apart here.

Molecular target: T1, KSP motor domain (Homo sapiens, UniProt P52732)
T1 sequence (P52732 18-359 limits assumed): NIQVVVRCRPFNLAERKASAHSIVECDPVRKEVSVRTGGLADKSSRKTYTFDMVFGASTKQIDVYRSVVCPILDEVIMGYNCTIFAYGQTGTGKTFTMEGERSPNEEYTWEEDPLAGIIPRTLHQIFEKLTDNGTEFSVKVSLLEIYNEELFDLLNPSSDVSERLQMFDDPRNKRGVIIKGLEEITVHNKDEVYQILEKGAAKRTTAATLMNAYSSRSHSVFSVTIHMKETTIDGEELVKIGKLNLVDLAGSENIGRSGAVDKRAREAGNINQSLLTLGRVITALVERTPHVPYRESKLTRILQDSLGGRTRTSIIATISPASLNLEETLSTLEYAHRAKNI
Assay: biochemical
Settings: read-out: IC50

[1] = KSP inhibitory activity, end-point assay, class symbols (Table 1)
[2] = exact IC50 values, end-point assay (Table 2)

Compound | pIC50 [1] | pIC50 [2]
CC(C)(C)C1CCc2nc3sc(C(=O)NC(CNCCO)c4cccc(NC(=O)c5ccco5)c4)cc3cc2C1 (stereo not drawn) [Example 264, 6-tert-butyl-5,6,7,8-tetrahydrothieno[2,3-b]quinoline-2-carboxylic acid [1-{3-[(furan-2-carbonyl)amino]phenyl}-2-(2-hydroxyethylamino)ethyl]amide] | > 7.00 | –
CC(C)(C)[C@@H]1CCc2nc3sc(C(=O)N[C@H](CNCCO)c4cccc(NC(=O)c5ncco5)c4)cc3cc2C1 [Example 265, 6-tert-Butyl-5,6,7,8-tetrahydrothieno[2,3-b]quinoline-2-carboxylic acid (2-(2-hydroxy-ethylamino)-1-{3-[(oxazole-2-carbonyl)amino]phenyl}ethyl)amide] | > 7.00 | –
Cc1cc(C(=O)Nc2cccc([C@@H](CNCCO)NC(=O)c3cc4cc5c(nc4s3)CC[C@@H](C(C)(C)C)C5)c2)no1 [Example 266, 6(R)-tert-butyl-5,6,7,8-tetrahydro-thieno[2,3-b]quinoline-2-carboxylic acid (2-(2-hydroxy-ethylamino)-1(S)-{3-[(5-methyl-isoxazole-3-carbonyl)-amino]-phenyl}-ethyl)-amide] | > 7.00 | –
Cn1nccc1C(=O)Nc1cccc([C@@H](CNCCO)NC(=O)c2cc3cc4c(nc3s2)CC[C@@H](C(C)(C)C)C4)c1 [Example 267] | 6.00 to 7.00 | –
Cn1ccc(C(=O)Nc2cccc([C@@H](CNCCO)NC(=O)c3cc4cc5c(nc4s3)CC[C@@H](C(C)(C)C)C5)c2)n1 [Example 268] | > 7.00 | –
CC(C)(C)[C@@H]1CCc2nc3sc(C(=O)N[C@H](CN)c4ccc(NC(=O)c5cnccn5)cc4)cc3cc2C1 [Example 269, 6(R)-tert-Butyl-5,6,7,8-tetrahydro-thieno[2,3-b]quinoline-2-carboxylic acid (2-amino-1(S)-{4-[(pyrazine-2-carbonyl)-amino]-phenyl}-ethyl)-amide] | > 7.00 | –
CC(C)(C)[C@@H]1CCc2nc3sc(C(=O)N[C@H](CN)c4ccc(NC(=O)c5cscn5)cc4)cc3cc2C1 [Example 270] | > 7.00 | –
CC(C)(C)[C@@H]1CCc2nc3sc(C(=O)N[C@H](CN)c4ccc(NC(=O)c5cocn5)cc4)cc3cc2C1 [Example 271] | > 7.00 | –
Cc1ncnc(C)c1C(=O)Nc1ccc([C@@H](CN)NC(=O)c2cc3cc4c(nc3s2)CC[C@@H](C(C)(C)C)C4)cc1 [Example 272] | > 7.00 | –
CC(C)(C)[C@@H]1CCc2nc3sc(C(=O)N[C@H](CN)c4ccc(NC(=O)c5ccco5)cc4)cc3cc2C1 [Example 273, 6(R)-tert-Butyl-5,6,7,8-tetrahydro-thieno[2,3-b]quinoline-2-carboxylic acid (2-amino-1(S)-{4-[(furan-2-carbonyl)-amino]-phenyl}-ethyl)-amide] | > 7.00 | 7.77
Cc1cc(C(=O)Nc2ccc([C@@H](CN)NC(=O)c3cc4cc5c(nc4s3)CC[C@@H](C(C)(C)C)C5)cc2)no1 [Example 274] | > 7.00 | –
CN1CCN(C(=O)Nc2cccc([C@@H](CN)NC(=O)c3cc4cc5c(nc4s3)CC[C@@H](C(C)(C)C)C5)c2)CC1 [Example 275, 6(R)-tert-butyl-5,6,7,8-tetrahydro-thieno[2,3-b]quinoline-2-carboxylic acid (2-amino-1(S)-{3-[(4-methyl-piperazine-1-carbonyl)-amino]-phenyl}-ethyl)-amide] | > 7.00 | –
C[C@H]1CNCCN1C(=O)Nc1cccc([C@@H](CN)NC(=O)c2cc3cc4c(nc3s2)CC[C@@H](C(C)(C)C)C4)c1 [Example 276] | > 7.00 | –
C[C@@H]1CNCCN1C(=O)Nc1cccc([C@@H](CN)NC(=O)c2cc3cc4c(nc3s2)CC[C@@H](C(C)(C)C)C4)c1 [Example 277] | > 7.00 | 8.00
C[C@@H]1CN[C@@H](C)CN1C(=O)Nc1cccc([C@@H](CN)NC(=O)c2cc3cc4c(nc3s2)CC[C@@H](C(C)(C)C)C4)c1 [Example 278] | 6.00 to 7.00 | –
C[C@@H]1CN(C(=O)Nc2cccc([C@@H](CN)NC(=O)c3cc4cc5c(nc4s3)CC[C@@H](C(C)(C)C)C5)c2)C[C@H](C)N1 [Example 279] | > 7.00 | –
